In patent US12053506B2, “Romo1-derived antimicrobial peptides and variants thereof” (priority 2019, dated 2024):
No end group written: not given here.

Legend:
[1] = system: methicillin-resistant Staphylococcus aureus (ATCC 33591); details: Tables 11-15, no unit printed
Description: First, each of Pseudomonas aeruginosa (ATCC 27853) and Staphylococcus aureus (ATCC 29213) was cultured in 3% (w/v) TSB (Tryptic Soy Broth) liquid medium at 37° C. and 200 rpm for 4 hours, and then further cultured under the same conditions for 3 hours to a concentration of 5×10^6 CFU/ml. Strain solutions were prepared by diluting each of the further cultured strains with SP (sodium phosphate; 10 mM sodium phosphate, 1% TSB) buffer to a final concentration of 2×10^5 CFU/ml.
(§1) Then, each peptide at varying concentrations (0 μg/ml to 300 μg/ml) was dispensed into each well of a 96-well microplate, and 100 μl (1×10^5 CFU/ml) of each of the prepared strain solutions was added thereto, mixed therewith, and allowed to react with the peptide in an incubator at 37° C. for 1 hour.
In addition, 30 g/L of TS (tryptic soy) and 15 g/L of agar were dissolved in distilled water and sterilized, and then 25 ml of the solution was poured onto a 100 mm round plate and solidified at room temperature for one day or more, thereby preparing a TS agar plate. 10 μl of each reaction solution of the peptide and the strain was plated on the TS agar plate at a constant size, and incubated in an incubator at 37° C. for 18 hours, and then colony formation on the plate was checked.
Specifically, each type of bacteria was cultured in 3% (w/v) TSB (Tryptic Soy Broth) liquid medium at 37° C. and 200 rpm for 4 hours, and then further cultured under the same conditions for 3 hours to a concentration of 5×10^6 CFU/ml. Strain solutions were prepared by diluting each of the […] of 2×10^5 CFU/ml.
as §1, with “Then, the KU-5878” for “Then, each”
In addition, 10 μl of each reaction solution of the peptide and the strain was plated on the TS agar plate at a constant size, and incubated in an incubator at 37° C. for 18 hours, and then colony formation on the plate was checked.

[2] = system: CRPA; assay: MBC, evaluation of antibacterial activities of KU-5878 variants; format: cell-based; details: Tables 11-15, no unit printed
Description: Variants were prepared by deleting one amino acid from the amino acid sequence of KU-5878 (SEQ ID NO: 13), and the antibacterial activities thereof were evaluated.
Variants were prepared by deleting two or more amino acids from the amino acid sequence of KU-5878 (SEQ ID NO: 13), and the antibacterial activities thereof were evaluated.
One amino acid in the amino acid sequence of KU-5878 (SEQ ID NO: 13) was substituted, and the antibacterial activities of the peptides were evaluated.
Substitutions of Q62K, S63K and T66K were sequentially added to the amino acid sequence of KU-5878-T59K, and the antibacterial activities of the peptides were evaluated.
An amino acid repeat sequence was added to the C-terminus of KU-5878, and the antibacterial activities of the peptides were evaluated. According to Table 15 below, when the R (arginine) repeat sequence or K (lysine) sequence was added to the C-terminus of KU-5878, the antibacterial activity of the peptide increased.

[3] = system: Pseudomonas aeruginosa (ATCC 27853); format: cell-based; details: for MBC Pseudomonas aeruginosa: Tables 11-15, no unit printed; for MBC value (μg/ml) against Pseudomonas aeruginosa: ATCC 27853, 1 h
Text: (§2) Romo1 protein comprises two α-helices. The present inventors synthesized the α-helix 2 region having both hydrophilicity and hydrophobicity, and evaluated the antibacterial activity thereof using minimum bactericidal concentration (MBC) assay. The α-helix 2 region was named KU-5279 (the 52-79 amino acid region of Romo1 protein). Then, in order to identify peptides that are beneficial for human application and have excellent antibacterial activity, the present inventors synthesized several peptides comprising a sequence of contiguous amino acids starting at any amino acid selected from the 52-79 amino acid region of Romo1 protein, and comparatively evaluated the antibacterial activities of the peptides by minimum bactericidal concentration assay (See Table 1 below for information on each peptide). Evaluation of the antibacterial activity of each peptide by minimum bactericidal concentration assay was specifically performed as follows. First, each of Pseudomonas aeruginosa (ATCC 27853) and Staphylococcus aureus (ATCC 29213) was cultured in 3% (w/v) TSB (Tryptic Soy Broth) liquid medium at 37° C. and 200 rpm for 4 hours, and then further cultured under the same conditions for 3 hours to a concentration of 5×10^6 CFU/ml. Strain solutions were prepared by diluting each of the further cultured strains with SP (sodium phosphate; 10 mM sodium phosphate, 1% TSB) buffer to a final concentration of 2×10^5 CFU/ml. Then, each peptide at varying concentrations (0 μg/ml to 300 μg/ml) was dispensed into each well of a 96-well microplate, and 100 μl (1×10^5 CFU/ml) of each of the prepared strain solutions was added thereto, mixed therewith, and allowed to react with the peptide in an incubator at 37° C. for 1 hour. In addition, 30 g/L of TS (tryptic soy) and 15 g/L of agar were dissolved in distilled water and sterilized, and then 25 ml of the solution was poured onto a 100 mm round plate and solidified at room temperature for one day or more, thereby preparing a TS agar plate. 10 μl of each reaction solution of the peptide and the strain was plated on the TS agar plate at a constant size, and incubated in an incubator at 37° C. for 18 hours, and then colony formation on the plate was checked. The minimum bactericidal concentration was defined as the minimum concentration of the peptide at which no colony was formed, and the experimental results are shown in Table 1 below.

[4] = system: Staphylococcus aureus (ATCC 29213); format: cell-based; details: for MBC Staphylococcus aureus: Tables 11-15, no unit printed; for MBC value (μg/ml) against Staphylococcus aureus: ATCC 29213, 1 h
Text: as §2

Substance | MBC MRSA [1] | MBC CRPA [2] | MBC Pseudomonas aeruginosa [3] | MBC Staphylococcus aureus [4] | MBC value (μg/ml) against Pseudomonas aeruginosa [3] | MBC value (μg/ml) against Staphylococcus aureus [4]
KTMMQSGGTFGTFMAIGMGIRQ [Peptide 5878-Q] | 180 µg/mL | 180 µg/mL | 150 µg/mL | 180 µg/mL |  | 
KTMMQSGGTFGTFMGIGMGIR [KU-5878-A72G] | > 300 µg/mL | > 300 µg/mL | > 300 µg/mL | > 300 µg/mL | 350 µg/mL | 350 µg/mL
KTMMQSGGTFGTFMAIGMGIRKK [Peptide 5878-KK] | 16 µg/mL | 16 µg/mL | 15 µg/mL | 16 µg/mL |  | 
KT-MQS-GTFGTFM-IG-GIR [5878-d60M, d64G, d72A, d75M] | 120 µg/mL | 120 µg/mL | 120 µg/mL | 100 µg/mL |  | 
KTAMQSGGTFGTFMAIGMGIR [KU-5878-M60A] | > 300 µg/mL | > 300 µg/mL | > 300 µg/mL | > 300 µg/mL | >300 µg/mL | >300 µg/mL
KTMMQSGGHFGTFMAIGMGIR [KU-5878-T66H] | > 300 µg/mL | > 300 µg/mL | > 300 µg/mL | > 300 µg/mL |  | 
KTMMQSGGTFGTFMAAGMGIR [KU-5878-I73A] | > 300 µg/mL | > 300 µg/mL | > 300 µg/mL | > 300 µg/mL | >300 µg/mL | >300 µg/mL
KTMMQSGGTFGTFMAIGMGIRRRR [Peptide 5878-3R] | 10 µg/mL | 8 µg/mL | 8 µg/mL | 8 µg/mL |  | 
KTMMQSGGAFGTFMAIGMGIR [KU-5878-T66A] | > 300 µg/mL | > 300 µg/mL | > 300 µg/mL | > 300 µg/mL |  | 
KTMMQSGGTWGTFMAIGMGIR [KU-5878-F67W] | 90 µg/mL | 80 µg/mL | 80 µg/mL | 80 µg/mL | 80 µg/mL | 80 µg/mL
KTMMQSGGTFGTFMAKGMGIR [KU-5878-I73K] | > 300 µg/mL | > 300 µg/mL | > 300 µg/mL | > 300 µg/mL | >300 µg/mL | >300 µg/mL
KT-MQS-GTFGTF--IG-GIR [5878-d60M, d64G, d71M, d72A, d75M] | 200 µg/mL | 200 µg/mL | 200 µg/mL | 200 µg/mL |  | 
KTMMQHGGTFGTFMAIGMGIR [KU-5878-S63H] | 110 µg/mL | 100 µg/mL | 100 µg/mL | 100 µg/mL |  | 
KTMMQSGGTFGTFMAIGM-IR [Peptide 5878-d76G] | 90 µg/mL | 90 µg/mL | 80 µg/mL | 70 µg/mL |  | 
KTMMQSGGTFGTWMAIGMGIR [KU-5878-F70W] | > 300 µg/mL | 300 µg/mL | 300 µg/mL | 300 µg/mL | 300 µg/mL | 300 µg/mL
KTMMQS-GTFGTFMAIGMGIR [Peptide 5878-d64G] | 100 µg/mL | 110 µg/mL | 100 µg/mL | 100 µg/mL |  | 
